Patent publication US8741911B2, “Raf inhibitor compounds” (Eli Lilly and Company, priority 2012, dated 2014)
Like-named read-outs stand apart in the source and are kept apart here.

How the values were obtained:
[1] = system: CCRF-CEM; assay: CellTiter-Glo proliferation and viability assay; type: cell-based; details: Homo sapiens, read-out: Abs IC50
[2] = system: RKO; assay: CellTiter-Glo proliferation and viability assay; type: cell-based; details: Homo sapiens
[3] = target: T1, A-Raf (WT) (Homo sapiens, UniProt P10398); assay: ActivX KiNativ A375 whole cell lysate assay; type: binding
T1 construct: Measurement of Raf Kinase Activities with Native Whole Enzymes Using KiNativ Assay; host or cells: A375 human melanoma cells, whole cell lysate
T1 sequence (P10398 1-606): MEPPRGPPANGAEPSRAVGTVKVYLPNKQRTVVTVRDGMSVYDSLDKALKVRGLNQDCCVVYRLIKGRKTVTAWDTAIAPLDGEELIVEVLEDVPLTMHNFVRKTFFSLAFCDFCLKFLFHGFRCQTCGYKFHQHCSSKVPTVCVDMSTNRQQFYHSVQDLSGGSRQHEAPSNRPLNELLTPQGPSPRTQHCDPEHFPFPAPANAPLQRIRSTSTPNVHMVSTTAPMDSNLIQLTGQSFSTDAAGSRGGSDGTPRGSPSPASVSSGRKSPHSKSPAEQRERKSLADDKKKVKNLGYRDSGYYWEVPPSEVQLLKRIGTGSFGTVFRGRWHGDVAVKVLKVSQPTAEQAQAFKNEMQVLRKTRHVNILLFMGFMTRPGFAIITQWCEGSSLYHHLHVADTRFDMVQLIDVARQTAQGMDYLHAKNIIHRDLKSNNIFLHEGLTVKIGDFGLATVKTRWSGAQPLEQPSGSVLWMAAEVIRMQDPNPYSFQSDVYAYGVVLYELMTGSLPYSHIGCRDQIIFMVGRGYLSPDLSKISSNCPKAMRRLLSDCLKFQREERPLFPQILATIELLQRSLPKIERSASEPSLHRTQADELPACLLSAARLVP

[4] = system: NCI-H1436; assay: CellTiter-Glo proliferation and viability assay; type: cell-based; details: Homo sapiens
[5] = system: Colo-205; assay: CellTiter-Glo proliferation and viability assay; type: cell-based; details: Homo sapiens, Colo-205, B-Raf V600E, colon
Excerpt: (§1) B-Raf mutations, particularly B-Raf V600E in human cancer are often observed in human malignancies including melanoma, colorectal, lung, and ovarian cancers. This mutation in B-Raf may lead to constitutive kinase activity and malignant transformation.

[6] = system: WM-266-4; assay: CellTiter-Glo proliferation and viability assay; type: cell-based; details: Homo sapiens, WM-266-4, B-Raf V600E, melanoma
Excerpt: as §1

IC50 [1]: 1.5 nM | inhibition at 0.001 µM ([3]; 1 nM): 4.3% | inhibition at 0.01 µM ([3]; 10 nM): 13.4% | inhibition at 0.1 µM ([3]; 100 nM): 53.6% | inhibition at 1 µM ([3]; 1000 nM): 72% | IC50 ([4]; read-out: Abs IC50): 8.35 nM | IC50 ([4]; read-out: Rel IC50): 12.7 nM | IC50 [5]: 27 nM
Compound: CNc1ncc2cc(-c3cc(NC(=O)NCCC(C)(C)C)c(F)cc3C)c(C)nc2n1 [Example 1, 1-(3,3-Dimethylbutyl)-3-(2-fluoro-4-methyl-5-(7-methyl-2-(methylamino)pyrido[2,3-d]pyrimidin-6-yl)phenyl)urea]
IC50 ([2]; read-out: Abs IC50): 4.92 nM | IC50 ([2]; read-out: Rel IC50): 0.26 nM | IC50 [6]: 52.9 nM
